According to article PMC11457795 (Cell chemical biology, 2024):
pIC50: −log10 of the molar value.

Target: PfMAGL (Plasmodium falciparum, UniProt Q8IJ22)
Experiment: fluorogenic 4-methylumbelliferyl caprylate hydrolysis assay, […] min preincubation
Format: biochemical

For `C#CCCCCP(=O)(OCC)Oc1ccc(S(=O)(=O)F)cc1` (racemic) [compound 2, ethyl (4-(fluorosulfonyl)phenyl) hex-5-yn-1-ylphosphonate], the pIC50 was 7.70.
